From patent US20190330224A1, “ACC INHIBITORS AND USES THEREOF” (Gilead Apollo, LLC, priority 2015, published 2019)
Values after ≈ are worked out from the molar mass of the structure shown.

Legend:
[1] = target: Human ACC2 (Homo sapiens, UniProt O00763); assay: In vitro ACC2 inhibition assay (ADP-Glo), human ACC2; format: biochemical; settings: 5 nM ACC2, 20 μM ATP, 20 μM acetyl-CoA
[2] = tested on: C. krusei ATCC 6258; assay: Anti-Fungal Activity Assay (broth microtiter MIC), C. krusei; format: cell-based, Candida krusei; settings: Pichia kudriavzevii, ATCC6258, 48 h, 3 replicates; MIC recorded at 48 h; read-out: MIC C. krusei ATCC 6258
How it was run: (§1)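 Susceptibility testing used direct colony suspensions in RPMI 1640+MOPS from Sabouraud dextrose agar grown at 35° C. Endpoints were visual MICs at 48 h under CLSI M27-A3 microtiter conditions, plus a 24 h reading for soraphen.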

[3] = tested on: C. parapsilosis ATCC 22019; assay: Anti-Fungal Activity Assay (broth microtiter MIC), C. parapsilosis; format: cell-based, Candida parapsilosis; settings: Lodderomyces parapsilosis, ATCC22019, 48 h, 3 replicates; MIC recorded at 48 h; read-out: MIC C. parapsilosis ATCC 22019
How it was run: as §1

[4] = target: Fungal ACC2 (UniProt Q00955); settings: read-out: Fungal ACC2 (IC50, in vitro ACC2 inhibition)
Sequence of Fungal ACC2 (Q00955 whole entry): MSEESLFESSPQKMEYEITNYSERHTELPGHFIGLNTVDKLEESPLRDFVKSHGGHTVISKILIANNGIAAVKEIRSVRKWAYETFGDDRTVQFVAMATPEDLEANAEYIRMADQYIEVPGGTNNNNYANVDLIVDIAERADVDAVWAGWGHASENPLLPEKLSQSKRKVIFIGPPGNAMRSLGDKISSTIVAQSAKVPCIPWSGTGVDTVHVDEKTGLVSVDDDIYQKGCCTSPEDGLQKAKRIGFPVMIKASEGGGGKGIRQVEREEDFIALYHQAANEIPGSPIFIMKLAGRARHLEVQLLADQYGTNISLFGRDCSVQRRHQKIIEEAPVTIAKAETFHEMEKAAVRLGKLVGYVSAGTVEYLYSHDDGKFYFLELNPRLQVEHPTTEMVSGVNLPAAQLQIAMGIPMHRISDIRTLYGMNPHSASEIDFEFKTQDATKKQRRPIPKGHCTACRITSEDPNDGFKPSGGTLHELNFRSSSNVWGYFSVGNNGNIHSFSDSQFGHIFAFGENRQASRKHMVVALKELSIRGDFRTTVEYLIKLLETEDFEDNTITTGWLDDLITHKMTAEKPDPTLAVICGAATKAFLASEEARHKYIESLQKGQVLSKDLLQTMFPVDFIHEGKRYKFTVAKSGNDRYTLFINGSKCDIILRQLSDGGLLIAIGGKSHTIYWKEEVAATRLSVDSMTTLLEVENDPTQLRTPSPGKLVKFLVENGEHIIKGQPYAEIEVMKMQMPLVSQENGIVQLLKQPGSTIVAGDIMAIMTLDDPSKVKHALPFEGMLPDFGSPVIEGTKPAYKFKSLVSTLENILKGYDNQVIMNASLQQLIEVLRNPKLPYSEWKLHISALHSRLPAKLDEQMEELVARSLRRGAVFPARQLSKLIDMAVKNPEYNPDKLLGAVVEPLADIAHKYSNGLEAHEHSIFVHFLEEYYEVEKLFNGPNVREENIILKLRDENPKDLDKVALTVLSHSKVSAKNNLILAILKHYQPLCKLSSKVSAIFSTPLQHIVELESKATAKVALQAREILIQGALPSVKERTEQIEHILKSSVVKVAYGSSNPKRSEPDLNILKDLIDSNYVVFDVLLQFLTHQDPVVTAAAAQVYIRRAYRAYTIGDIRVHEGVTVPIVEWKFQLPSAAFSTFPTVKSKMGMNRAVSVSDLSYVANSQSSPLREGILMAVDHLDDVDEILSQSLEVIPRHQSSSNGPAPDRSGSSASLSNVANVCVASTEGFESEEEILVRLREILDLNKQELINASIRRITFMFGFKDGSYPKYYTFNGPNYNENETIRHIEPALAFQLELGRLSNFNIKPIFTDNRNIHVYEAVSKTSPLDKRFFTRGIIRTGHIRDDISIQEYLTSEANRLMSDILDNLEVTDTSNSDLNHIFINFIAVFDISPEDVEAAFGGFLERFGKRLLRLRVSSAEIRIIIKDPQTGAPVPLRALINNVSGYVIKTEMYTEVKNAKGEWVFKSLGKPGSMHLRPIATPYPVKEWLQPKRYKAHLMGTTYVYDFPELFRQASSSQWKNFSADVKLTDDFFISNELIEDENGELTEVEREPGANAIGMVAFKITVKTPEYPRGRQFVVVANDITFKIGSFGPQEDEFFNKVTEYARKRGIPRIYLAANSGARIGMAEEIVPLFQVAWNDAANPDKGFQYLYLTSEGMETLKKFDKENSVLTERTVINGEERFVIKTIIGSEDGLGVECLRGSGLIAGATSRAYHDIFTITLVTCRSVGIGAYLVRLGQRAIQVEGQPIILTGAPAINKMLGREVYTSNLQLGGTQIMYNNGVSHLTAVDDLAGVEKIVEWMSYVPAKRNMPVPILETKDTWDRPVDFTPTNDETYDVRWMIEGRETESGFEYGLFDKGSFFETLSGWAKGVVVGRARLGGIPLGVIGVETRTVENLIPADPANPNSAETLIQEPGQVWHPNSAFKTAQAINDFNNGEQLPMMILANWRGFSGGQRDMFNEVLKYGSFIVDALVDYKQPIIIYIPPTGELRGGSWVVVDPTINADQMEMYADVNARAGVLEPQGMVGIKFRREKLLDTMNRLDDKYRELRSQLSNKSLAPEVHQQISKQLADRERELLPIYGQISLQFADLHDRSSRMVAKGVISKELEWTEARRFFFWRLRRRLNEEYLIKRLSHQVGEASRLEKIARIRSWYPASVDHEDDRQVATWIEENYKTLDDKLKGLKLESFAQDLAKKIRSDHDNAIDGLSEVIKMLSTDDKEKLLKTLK

[5] = tested on: C. albicans ATCC 90028; assay: Anti-Fungal Activity Assay (broth microtiter MIC), C. albicans; format: cell-based, Candida albicans; settings: Candida albicans, ATCC90028, 48 h, 3 replicates; MIC recorded at 48 h; read-out: MIC C. albicans ATCC 90028
How it was run: as §1

Sequence of Human ACC2 (O00763 whole entry): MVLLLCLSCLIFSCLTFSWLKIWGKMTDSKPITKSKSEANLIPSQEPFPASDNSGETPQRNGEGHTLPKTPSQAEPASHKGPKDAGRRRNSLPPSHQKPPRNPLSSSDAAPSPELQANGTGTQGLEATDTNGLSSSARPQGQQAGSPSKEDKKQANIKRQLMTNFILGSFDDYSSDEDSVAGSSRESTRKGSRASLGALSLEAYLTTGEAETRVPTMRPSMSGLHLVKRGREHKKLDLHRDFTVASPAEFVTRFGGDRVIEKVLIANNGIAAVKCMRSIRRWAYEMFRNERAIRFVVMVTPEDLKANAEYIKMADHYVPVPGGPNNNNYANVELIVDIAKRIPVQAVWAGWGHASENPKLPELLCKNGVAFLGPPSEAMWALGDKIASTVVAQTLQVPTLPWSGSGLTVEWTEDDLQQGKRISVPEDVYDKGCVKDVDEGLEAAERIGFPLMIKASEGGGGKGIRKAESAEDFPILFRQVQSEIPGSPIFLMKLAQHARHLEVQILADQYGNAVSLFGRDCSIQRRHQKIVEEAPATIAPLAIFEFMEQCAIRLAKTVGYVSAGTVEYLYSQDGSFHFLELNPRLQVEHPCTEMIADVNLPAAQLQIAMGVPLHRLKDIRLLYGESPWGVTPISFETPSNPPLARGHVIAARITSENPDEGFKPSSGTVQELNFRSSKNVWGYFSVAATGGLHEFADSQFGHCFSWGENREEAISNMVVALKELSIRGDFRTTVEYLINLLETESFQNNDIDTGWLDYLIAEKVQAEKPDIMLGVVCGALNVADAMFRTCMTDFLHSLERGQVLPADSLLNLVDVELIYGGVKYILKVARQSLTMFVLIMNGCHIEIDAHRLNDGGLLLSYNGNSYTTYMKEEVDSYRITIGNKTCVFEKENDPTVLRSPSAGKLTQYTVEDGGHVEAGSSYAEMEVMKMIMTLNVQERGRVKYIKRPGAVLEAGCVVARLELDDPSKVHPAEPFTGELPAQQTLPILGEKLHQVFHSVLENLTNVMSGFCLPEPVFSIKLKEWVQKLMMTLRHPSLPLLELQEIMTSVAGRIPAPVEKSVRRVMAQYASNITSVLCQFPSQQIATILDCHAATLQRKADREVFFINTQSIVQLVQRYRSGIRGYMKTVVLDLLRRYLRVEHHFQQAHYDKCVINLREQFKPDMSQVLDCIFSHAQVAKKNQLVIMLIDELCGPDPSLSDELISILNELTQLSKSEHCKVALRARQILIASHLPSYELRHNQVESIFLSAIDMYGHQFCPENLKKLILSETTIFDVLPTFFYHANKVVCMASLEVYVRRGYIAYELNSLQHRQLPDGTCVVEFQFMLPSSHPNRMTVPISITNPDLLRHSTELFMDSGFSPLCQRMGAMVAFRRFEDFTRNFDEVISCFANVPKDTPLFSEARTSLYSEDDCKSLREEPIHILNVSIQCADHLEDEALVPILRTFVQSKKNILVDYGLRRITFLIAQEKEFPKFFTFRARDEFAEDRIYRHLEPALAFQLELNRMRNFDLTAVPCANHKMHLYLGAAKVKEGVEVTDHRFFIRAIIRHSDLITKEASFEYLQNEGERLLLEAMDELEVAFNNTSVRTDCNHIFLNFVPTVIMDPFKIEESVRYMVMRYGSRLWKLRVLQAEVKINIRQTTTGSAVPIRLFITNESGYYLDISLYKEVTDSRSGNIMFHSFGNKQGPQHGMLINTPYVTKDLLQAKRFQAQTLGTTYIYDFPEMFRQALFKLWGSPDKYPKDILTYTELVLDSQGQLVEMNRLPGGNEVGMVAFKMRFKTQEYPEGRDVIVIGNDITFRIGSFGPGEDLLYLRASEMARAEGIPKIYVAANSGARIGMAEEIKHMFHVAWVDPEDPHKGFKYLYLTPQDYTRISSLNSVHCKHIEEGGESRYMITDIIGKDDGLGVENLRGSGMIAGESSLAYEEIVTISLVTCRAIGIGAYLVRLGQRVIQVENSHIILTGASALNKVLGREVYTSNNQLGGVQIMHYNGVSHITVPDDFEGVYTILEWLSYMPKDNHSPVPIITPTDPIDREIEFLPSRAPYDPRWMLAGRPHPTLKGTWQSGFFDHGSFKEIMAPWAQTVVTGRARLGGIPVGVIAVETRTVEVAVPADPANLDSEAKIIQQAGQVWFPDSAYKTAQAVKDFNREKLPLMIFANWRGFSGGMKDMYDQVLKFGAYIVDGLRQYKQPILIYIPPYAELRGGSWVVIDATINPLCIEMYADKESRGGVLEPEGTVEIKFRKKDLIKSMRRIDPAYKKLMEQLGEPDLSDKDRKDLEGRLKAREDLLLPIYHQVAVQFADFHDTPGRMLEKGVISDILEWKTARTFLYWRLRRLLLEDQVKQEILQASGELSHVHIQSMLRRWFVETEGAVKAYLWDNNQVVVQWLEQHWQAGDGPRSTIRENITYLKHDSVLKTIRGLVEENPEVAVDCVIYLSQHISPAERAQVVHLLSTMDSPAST

| SMILES | IC50 [1] [nM] | MIC [2] [µg/mL] | MIC [3] [µg/mL] | IC50 [4] [nM] | MIC [5] [µg/mL] |
| --- | --- | --- | --- | --- | --- |
| COc1ccc(F)cc1[C@H](Cn1c(=O)n([C@@]2(C)CCCN(C)C2=O)c(=O)c2c(C)c(-n3nccn3)sc21)OCCO [Compound I-131, 3-((S)-1,3-dimethyl-2-oxopiperidin-3-yl)-1-((R)-2-(5-fluoro-2-methoxyphenyl)-2-(2-hydroxyethoxy)ethyl)-5-methyl-6-(2H-1,2,3-triazol-2-yl)thieno[2,3-d]pyrimidine-2,4(1H,3H)-dione] | 10 to 100 | 2.1 to 4 (≈ 3.58 to 6.82 µM) | 2.1 to 4 (≈ 3.58 to 6.82 µM) | 0.7 to 2 | 2.1 to 4 (≈ 3.58 to 6.82 µM) |
| COc1ccc(F)cc1[C@H](Cn1c(=O)n([C@H]2CCNC2=O)c(=O)c2c(C)c(-c3ncco3)sc21)OCCO [Compound I-68, 1-((R)-2-(5-fluoro-2-methoxyphenyl)-2-(2-hydroxy-ethoxy)ethyl)-5-methyl-6-(oxazol-2-yl)-3-((S)-2-oxopyrrolidin-3-yl)thieno[2,3-d]pyrimidine-2,4(1H,3H)-dione] | 10 to 100 | 2.1 to 4 (≈ 3.86 to 7.35 µM) | 2.1 to 4 (≈ 3.86 to 7.35 µM) | 2 to 10 | 2.1 to 4 (≈ 3.86 to 7.35 µM) |
| COc1ccc(F)cc1[C@H](Cn1c(=O)n(C2CCCN(C)C2=O)c(=O)c2c(C)c(-n3nccn3)sc21)OC1CCOCC1 (stereo partly drawn) [Compound I-22, 1-((R)-2-(5-fluoro-2-methoxyphenyl)-2-((tetrahydro-2H-pyran-4-yl)oxy)ethyl)-5-methyl-3-(1-methyl-2-oxopiperidin-3-yl)-6-(2H-1,2,3-triazol-2-yl)thieno[2,3-d]pyrimidine-2,4(1H,3H)-dione] | 10 to 100 | 0.25 to 1 (≈ 0.408 to 1.63 µM) | 0.25 to 1 (≈ 0.408 to 1.63 µM) | 0.7 to 2 | 0.25 to 1 (≈ 0.408 to 1.63 µM) |
| COc1ccc(F)cc1[C@H](Cn1c(=O)n(C2CCN(C)C2=O)c(=O)c2c(C)c(-c3ncco3)sc21)OCCO (stereo partly drawn) [Compound I-55, 1-((R)-2-(5-fluoro-2-methoxyphenyl)-2-(2-hydroxy-ethoxy)ethyl)-5-methyl-3-(-methyl-2-oxopyrrolidin-3-yl)-6-(oxazol-2-yl)thieno[2,3-d]pyrimidine-2,4(1H,3H)-dione] | 10 to 100 | 2.1 to 4 (≈ 3.76 to 7.16 µM) | 2.1 to 4 (≈ 3.76 to 7.16 µM) | 0.7 to 2 | 2.1 to 4 (≈ 3.76 to 7.16 µM) |
| COc1ccc(F)cc1[C@H](Cn1c(=O)n([C@H]2CCN(C)C2=O)c(=O)c2c(C)c(-n3nccn3)sc21)OC1CCOCC1 [Compound I-35, 1-((R)-2-(5-fluoro-2-methoxyphenyl)-2-((tetrahydro-2H-pyran-4-yl)oxy)ethyl)-5-methyl-3-((S)-1-methyl-2-oxopyrrolidin-3-yl)-6-(2H-1,2,3-triazol-2-yl)thieno[2,3-d]pyrimidine-2,4(1H,3H)-dione] | 10 to 100 | 2.1 to 4 (≈ 3.51 to 6.68 µM) | 2.1 to 4 (≈ 3.51 to 6.68 µM) | 0.7 to 2 | 2.1 to 4 (≈ 3.51 to 6.68 µM) |
| COc1ccc(F)cc1[C@H](Cn1c(=O)n([C@@H]2CCN(C(=O)C(C)C)C2)c(=O)c2c(C)c(-n3nccn3)sc21)OCCO [Compound I-87, 1-((R)-2-(5-fluoro-2-methoxyphenyl)-2-(2-hydroxy-ethoxy)ethyl)-3-((R)-1-isobutyrylpyrrolidine-3-yl)-5-methyl-6-(2H-1,2,3-triazol-2-yl)thieno[2,3-d]pyrimidine-2,4(1H,3H)-dione] | 10 to 100 | 2.1 to 4 (≈ 3.5 to 6.66 µM) | 2.1 to 4 (≈ 3.5 to 6.66 µM) | 0.7 to 2 | 2.1 to 4 (≈ 3.5 to 6.66 µM) |
| COc1ccc(F)cc1C(=O)Cn1c(=O)n([C@H]2CCN(C)C2=O)c(=O)c2c(C)c(-n3nccn3)sc21 [Compound I-161, (S)-1-(2-(5-fluoro-2-methoxyphenyl)-2-oxoethyl)-5-methyl-3-(1-methyl-2-oxopyrrolidin-3-yl)-6-(2H-1,2,3-triazol-2-yl)thieno[2,3-d]pyrimidine-2,4(1H,3H)-dione] | > 1000 | 2.1 to 4 (≈ 4.1 to 7.8 µM) | 2.1 to 4 (≈ 4.1 to 7.8 µM) | 100 to 1000 | 2.1 to 4 (≈ 4.1 to 7.8 µM) |
| COc1ccccc1[C@H](Cn1c(=O)n([C@H]2CCCN(C)C2=O)c(=O)c2c(C)c(-c3ncco3)sc21)OCCO [Compound I-66, 1-((R)-2-(2-hydroxyethoxy)-2-(2-methoxyphenyl)ethyl)-5-methyl-3-((S)-1-methyl-2-oxopiperidin-3-yl)-6-(oxazol-2-yl)thieno[2,3-d]pyrimidine-2,4(1H,3H)-dione] | 10 to 100 | 2.1 to 4 (≈ 3.79 to 7.21 µM) | 2.1 to 4 (≈ 3.79 to 7.21 µM) | 2 to 10 | 2.1 to 4 (≈ 3.79 to 7.21 µM) |
| COc1ccc(F)cc1[C@H](Cn1c(=O)n([C@@H]2CCCN(C)C2=O)c(=O)c2c(C)c(-n3nccn3)sc21)OCCC#N [Compound I-117, 3-((R)-1-(5-fluoro-2-methoxyphenyl)-2-(5-methyl-3-((R)-1-methyl-2-oxopiperidin-3-yl)-2,4-dioxo-6-(2H-1,2,3-triazol-2-yl)-3,4-dihydrothieno[2,3-d]pyrimidin-1(2H)-yl)ethoxy)propanenitrile] | 2 to 10 | 2.1 to 4 (≈ 3.61 to 6.88 µM) | 2.1 to 4 (≈ 3.61 to 6.88 µM) | 0.7 to 2 | 2.1 to 4 (≈ 3.61 to 6.88 µM) |
| COc1ccc(F)cc1[C@H](Cn1c(=O)n([C@@]2(C)CCCNC2=O)c(=O)c2c(C)c(-n3nccn3)sc21)OCCO [Compound I-127, 1-((R)-2-(5-fluoro-2-methoxyphenyl)-2-(2-hydroxyethoxy)ethyl)-5-methyl-3-((S)-3-methyl-2-oxopiperidin-3-yl)-6-(2H-1,2,3-triazol-2-yl)thieno[2,3-d]pyrimidine-2,4(1H,3H)-dione] | 10 to 100 | 2.1 to 4 (≈ 3.67 to 6.99 µM) | 2.1 to 4 (≈ 3.67 to 6.99 µM) | 0.7 to 2 | 2.1 to 4 (≈ 3.67 to 6.99 µM) |
| COCCO[C@@H](Cn1c(=O)n([C@]2(C)CCC(=O)NC2)c(=O)c2c(C)c(-n3nccn3)sc21)c1cc(F)ccc1OC [Compound I-132, 1-((R)-2-(5-fluoro-2-methoxyphenyl)-2-(2-methoxy-ethoxy)ethyl)-5-methyl-3-((R)-3-methyl-6-oxopiperidin-3-yl)-6-(2H-1,2,3-triazol-2-yl)thieno[2,3-d]pyrimidine-2,4(1H,3H)-dione] | 10 to 100 | 2.1 to 4 (≈ 3.58 to 6.82 µM) | 2.1 to 4 (≈ 3.58 to 6.82 µM) | 0.7 to 2 | 2.1 to 4 (≈ 3.58 to 6.82 µM) |
| COCCO[C@@H](Cn1c(=O)n([C@H]2CCN(C(=O)C(C)C)C2)c(=O)c2c(C)c(-n3nccn3)sc21)c1cc(F)ccc1OC [Compound I-96, 1-((R)-2-(5-fluoro-2-methoxyphenyl)-2-(2-methoxy-ethoxy)ethyl)-3-((S)-1-isobutyrylpyrrolidin-3-yl)-5-methyl-6-(2H-1,2,3-triazol-2-yl)thieno[2,3-d]pyrimidine-2,4(1H,3H)-dione] | 10 to 100 | 2.1 to 4 (≈ 3.42 to 6.51 µM) | 2.1 to 4 (≈ 3.42 to 6.51 µM) | 2 to 10 | 2.1 to 4 (≈ 3.42 to 6.51 µM) |
| COCCO[C@@H](Cn1c(=O)n(CCN2CCCC2=O)c(=O)c2c(C)c(-n3nccn3)sc21)c1cc(F)ccc1OC [Compound I-99, (R)-1-(2-(5-fluoro-2-methoxyphenyl)-2-(2-methoxy-ethoxy)ethyl)-5-methyl-3-(2-(2-oxopyrrolidin-1-yl)ethyl)-6-(2H-1,2,3-triazol-2-yl)thieno[2,3-d]pyrimidine-2,4(1H,3H)-dione] | 10 to 100 | 2.1 to 4 (≈ 3.58 to 6.82 µM) | 2.1 to 4 (≈ 3.58 to 6.82 µM) | 0.7 to 2 | 2.1 to 4 (≈ 3.58 to 6.82 µM) |
| CCN1CCCC(n2c(=O)c3c(C)c(-n4nccn4)sc3n(C[C@H](OCCOC)c3cc(F)ccc3OC)c2=O)C1=O (stereo partly drawn) [Compound I-15, 3-(1-ethyl-2-oxopiperidin-3-yl)-1-((R)-2-(5-fluoro-2-methoxyphenyl)-2-(2-methoxyethoxy)ethyl)-5-1-methyl-6-(2H-1,2,3-triazol-2-yl)thieno[2,3-d]pyrimidine-2,4(1H,3H)-dione] | 10 to 100 | 2.1 to 4 (≈ 3.5 to 6.66 µM) | 2.1 to 4 (≈ 3.5 to 6.66 µM) | 10 to 100 | 2.1 to 4 (≈ 3.5 to 6.66 µM) |
| COc1ccc(F)cc1[C@H](Cn1c(=O)n([C@@H]2CCCN(C)C2=O)c(=O)c2c(C)c(-n3nccn3)sc21)OC1CCOCC1 [Compound I-40, 1-((R)-2-(5-fluoro-2-methoxyphenyl)-2-((tetrahydro-2H-pyran-4-yl)oxy)ethyl)-5-methyl-3-((R)-1-methyl-2-oxopiperidin-3-yl)-6-(2H-1,2,3-triazol-2-yl)thieno[2,3-d]pyrimidine-2,4(1H,3H)-dione] | 10 to 100 | 1.1 to 2 (≈ 1.8 to 3.26 µM) | 0.25 to 1 (≈ 0.408 to 1.63 µM) | 0.7 to 2 | 1.1 to 2 (≈ 1.8 to 3.26 µM) |
| COc1ccc(F)cc1[C@H](Cn1c(=O)n(C2CCCN(C)C2=O)c(=O)c2c(C)c(-n3nccn3)sc21)OCCO (stereo partly drawn) [Compound I-18, 1-((R)-2-(5-fluoro-2-methoxyphenyl)-2-(2-hydroxy-ethoxy)ethyl)-5-methyl-3-(1-methyl-2-oxopiperidin-3-yl)-6-(2H-1,2,3-triazol-2-yl)thieno[2,3-d]pyrimidine-2,4(1H,3H)-dione] | 10 to 100 | 2.1 to 4 (≈ 3.67 to 6.99 µM) | 2.1 to 4 (≈ 3.67 to 6.99 µM) | 2 to 10 | 2.1 to 4 (≈ 3.67 to 6.99 µM) |
| COc1ccc(F)cc1[C@H](Cn1c(=O)n([C@H]2CCCNC2=O)c(=O)c2c(C)c(-n3nccn3)sc21)OCCC(=O)O [Compound I-177, 3-((R)-1-(5-fluoro-2-methoxyphenyl)-2-(5-methyl-2,4-dioxo-3-((S)-2-oxopiperidin-3-yl)-6-(2H-1,2,3-triazol-2-yl)-3,4-dihydrothieno[2,3-d]pyrimidin-1 (2H)-yl)ethoxy)propanoic acid] | 10 to 100 | 2.1 to 4 (≈ 3.58 to 6.82 µM) | 2.1 to 4 (≈ 3.58 to 6.82 µM) | 2 to 10 | 2.1 to 4 (≈ 3.58 to 6.82 µM) |
